For the assay, the target named is Phosphodiesterase 4 (Homo sapiens, UniProt P27815+Q08499+Q07343+Q08493). Description: Inhibition of partially-purified PDE 4 from human monocytes.

The molecule `COc1ccc([C@@H]2CC(=O)N(Cc3ccc(Br)cc3)C2)cc1OC1CCCC1` returned an IC50 of 0.17 µM.

For the molecule `COc1ccc([C@H]2CC(=O)N(Cc3ccc(Br)cc3)C2)cc1OC1CCCC1`, the concentration for half-maximal inhibition (IC50) was determined as 0.74 µM.

The values are drawn from ChEMBL document CHEMBL1126870, “The crystal structure, absolute configuration, and phosphodiesterase inhibitory activity of (+)-1-(4-bromobenzyl)-4-(3-(cyclopentyloxy)- 4-methoxyphenyl)-pyrrolidin-2-one” (J Med Chem, 1993).
